Source: ChEMBL document CHEMBL1201862, “PubChem BioAssay data set” (2004)
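Cultured in 96-well plates, cells were exposed to test compound for 48 hours across five concentrations. GI50: concentration for 50% inhibition of growth.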 Activity calls are given as the source filed them. Rule as the data show it: active = GI50 up to about 1.1 µM and inactive = higher.

How the values were obtained:
Assay in all cases: growth of human tumour cells (NCI), 48 h
[1] = system: M19-MEL
[2] = system: LXFL 529
[3] = system: XF498
[4] = system: 786-0
[5] = system: MDA-N
[6] = system: Hs-578T
[7] = system: RXF 631
[8] = system: SNB-78
[9] = system: HOP-18

Structure (SMILES) | GI50 [1] | GI50 [3] | GI50 [4] | GI50 [5] | GI50 [6] | also measured
CC(C)OP(=O)(OC(C)C)/C(=N/Nc1ccc([N+](=O)[O-])cc1)Nc1ccc(N/C(=N\Nc2ccc([N+](=O)[O-])cc2)P(=O)(OC(C)C)OC(C)C)cc1 | 82.4 µM (inactive) | > 100 µM (inactive) |  |  |  | GI50 [2]: 19.6 µM (inactive)
CC1=C[C@@H]2[C@@H](CC(CO)=C[C@H]3[C@@H]4C(C)(C)[C@]4(OCC(C)C)[C@H](OCC(C)C)[C@@H](C)[C@]23O)C1=O |  |  | 1.47 µM (inactive) | 0.649 µM (active) | 0.9 µM (active) | 
N#Cc1c(N)nc(Nc2cccc3ccccc23)c(C#N)c1C#N |  |  |  | 1.84 µM (inactive) | 2.43 µM (inactive) | 
COC(=O)C(NC(=O)c1ccccc1)C(c1c(O)cc(O)cc1O)P(=O)(OC)OC (stereo not given) | > 100 µM (inactive) | > 100 µM (inactive) |  |  |  | GI50 [2]: 54 µM (inactive); GI50 [7]: > 100 µM (inactive)
O=C1C[C@@H]2[C@@H](C=CC23CCCC3)N1O | > 100 µM (inactive) |  | > 100 µM (inactive) |  |  | GI50 [8]: > 100 µM (inactive); GI50 [2]: > 100 µM (inactive); GI50 [9]: > 100 µM (inactive)
O=S(=O)(N=S(c1ccccc1)c1ccccc1)c1ccccc1 |  |  | > 100 µM (inactive) |  |  | 
NC(CCCCO)C(=O)O (stereo not given) |  |  |  |  | > 100 µM (inactive) | 
Nc1ncnc2c1cnn2Cc1ccc(Cl)cc1 |  |  |  | > 100 µM (inactive) | > 100 µM (inactive) | 
O=C(O)c1ccccc1CN1CCCC(C(=O)O)C1 (stereo not given) |  |  | > 100 µM (inactive) | > 100 µM (inactive) | > 100 µM (inactive) | 
CCCCNC(=S)Nc1nc(C(=O)NNC(=S)NC2CCCCC2)cs1 |  |  | > 100 µM (inactive) | > 100 µM (inactive) |  | 
C=C1C(=O)O[C@@H]2[C@H](O)[C@@H](C)[C@@H]3C=CC(=O)[C@@]3(C)[C@H](OC(=O)C=C(C)C)[C@H]12 | 1.12 µM (active) | 1.24 µM (inactive) |  |  |  | GI50 [9]: 1.67 µM (inactive)
O=S(O)CCCCCSSSCCCCCS(=O)O | 22.1 µM (inactive) | 5.32 µM (inactive) |  |  |  | GI50 [8]: 45.6 µM (inactive); GI50 [2]: 11.4 µM (inactive)
Nc1nc(=O)c2c([nH]1)NCC(CNc1ccc(C(=O)N[C@@H](CCC(=O)O)C(=O)O)cc1)N2C=O (stereo not given in full) [LEUCOVORIN CALCIUM] | > 125 µM (inactive) |  |  |  |  | GI50 [8]: > 125 µM (inactive); GI50 [9]: > 125 µM (inactive)
CCCCCCCCCCCCCCCCCCOP(=O)([O-])OCC[N+](C)(C)C [OCTADECYLPHOSPHONOCHOLINE] | 4.24 µM (inactive) | 12.4 µM (inactive) |  |  |  | GI50 [8]: 10.2 µM (inactive); GI50 [9]: 15.9 µM (inactive)
